These are literature values, as cited in US7943127B2 (priority 2004, dated 2011).

Each structure is given as a SMILES string.

For this data set the following is noted: in vivo, iv.

Turning to `COc1cc(CNC(=O)CCCC/C=C/C(C)C)ccc1O` [Capsaicin, (E)-N-((4-Hydroxy-3-methoxyphenyl)-methyl)-8-methyl-6-nonenamide], the lethal toxic dose result was “about 0.56 mg/kg”.
